# Test: gradient 5% acetonitrile 3 min, to 50% in 2 min, to 85% in 15 min, held 3 min, 100 µL/min
# Details: column: Zorbax Extend-C18 2.1 x 50 mm; eluents: water / acetonitrile, 0.1% formic acid
# Outline: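 Pure standards were run in mixtures of ~100 molecules by HPLC coupled to a quadrupole time-of-flight mass spectrometer. The column was a Zorbax Extend-C18 (2.1 × 50 mm, 1.8 μm) at 100 μL/min, with water and acetonitrile each containing 0.1% formic acid, in positive and negative ionization mode. Dead and dwell volumes were 40 μL and 900 μL. Retention time was taken from computationally picked adduct peaks, each manually inspected, with data collected over 3 months.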
row,Compound,RP-LC retention time
1,CC(C(=O)NCCCN1CCCC1=O)C1CCN(C(=O)c2cc3cc(Cl)ccc3[nH]2)CC1 (stereo unspecified),698 s
2,O=C(C1CCN(c2cc(N3CCCCC3)ncn2)CC1)N1CCCCC1,652 s
3,CC1(C(=O)NCc2ccccc2)CCN(C(=O)Nc2cccc(C(F)(F)F)c2)CC1,919 s
4,CCOc1cc(C2NC(=O)c3[nH]nc(-c4cccc(OC)c4)c32)ccc1O (stereo unspecified),669 s
5,Cc1ccc(CNC(=O)Cn2cccc(-c3nc(-c4ccc(Br)cc4)no3)c2=O)cc1,1030 s
6,OCc1nc2ccccc2n1C/C=C/c1ccccc1,579 s
7,CCOc1ccccc1NC(=O)Cc1csc2nc(-c3ccccc3)cn12,894 s
8,CCN(C(=O)c1ccco1)c1nc(-c2ccccc2)cs1,1180 s
9,C[C@H]1CC[C@@H]2N(C1)C[C@H]1[C@@H]3C[C@H]4[C@@H](CC(=O)[C@H]5C[C@@H](O)CC[C@@]54C)[C@@H]3CC[C@H]1[C@]2(C)O,601 s
10,CCOc1ccc(S(=O)(=O)N2CCC(C(=O)NCCC3=CCCCC3)CC2)cc1,953 s
11,O=C(Nc1nccs1)c1cc(Cl)sc1Cl,836 s
12,Cc1nc2cccnc2n1CC1CCCN(S(=O)(=O)c2ccc(C(C)C)cc2)C1 (stereo unspecified),817 s
13,CC(=O)OCc1cc(=O)n(C)c2c3c4c(cc12)c(C)cc(=O)n4CO3,669 s
14,COc1coc(C(=O)N2CCN(S(C)(=O)=O)CC2)cc1=O,548 s
15,COc1cc2c(c(OC)c1O)C(=O)CO2,642 s
16,C#CC1(N2CCCCC2)CCCCC1,638 s
17,O=c1n(CCOc2ccccc2)nc2c(S(=O)(=O)N3CCN(c4ccc(F)cc4)CC3)cccn12,1000 s
18,CC(C)C(=O)Nc1ccc(N2CCN(c3ccccc3)C2=O)nc1,832 s
19,CCCN1CCN(C(=O)c2nc(N3CCSCC3)c3cnn(C)c3n2)CC1,576 s
20,COc1ccccc1C(=O)N1CCN(C2=NS(=O)(=O)c3ccccc32)CC1,698 s
21,COC(=O)c1c(NCCc2c[nH]c3ccccc23)c2cc(F)ccc2[nH]c1=O,770 s
22,COc1cc(C(CC(=O)N2CCCC2)N2Cc3ccccc3C2=O)cc(OC)c1OC (stereo unspecified),661 s

row,Compound,RP-LC retention time
1,COc1ccc(N2CCN(c3cc(SCC(=O)Nc4cc(C)ccc4C)ncn3)CC2)cc1,1020 s
2,O=S(=O)(NCc1nc(-c2ccc(NS(=O)(=O)c3ccccc3)cc2)no1)c1ccccc1,877 s
3,Cc1ccc(NC(=O)NCC(c2cccnc2)c2cn(C)c3ccccc23)cc1C (stereo unspecified),753 s
4,COC(=O)c1ncn2c1C(=O)N(Cc1ccccc1C)C(C)(C(=O)NCc1ccccc1)C2 (stereo unspecified),735 s
5,COC(=O)c1sc(-c2ccccc2)cc1NC(=O)c1ccc([N+](=O)[O-])s1,1370 s
6,Cc1ccn2c(NC(=O)c3ccccc3)c(-c3ccccc3)nc2c1,646 s
7,COc1ccc(-c2cn3nc(N4CCCC(C(=O)N5CCCC5)C4)sc3n2)cc1 (stereo unspecified),981 s
8,O=C(Cn1c(=O)n(-c2ccccc2)c2ncccc21)NC1CCN(Cc2ccccc2)CC1,630 s
9,CCCNC(=O)c1sc(Nc2cccc(C)n2)nc1C,697 s
10,CC(=O)c1ccc(S(=O)(=O)N2CCc3nc[nH]c3C2)cc1,585 s
11,CCNC(=O)C1CCCN(c2nc3ncn(CC(=O)Nc4ccc(C(C)C)cc4)c(=O)c3s2)C1 (stereo unspecified),759 s
12,O=C1C(N2CCN(S(=O)(=O)c3ccc(Cl)cc3)CC2)CCN1CCc1ccccc1 (stereo unspecified),718 s
13,Cc1[nH]c(C(=O)N2CCCC(C(=O)NCc3ccc(Cl)cc3)C2)c(C)c1C(=O)OC(C)C (stereo unspecified),610 s
14,COc1ccc2[nH]cc(CCNC(=O)CN3C(=O)CSc4cccn4-c4ccccc43)c2c1,859 s
15,CC1CCN(C(=O)c2cc(S(=O)(=O)N(C)CC(=O)N3CCN(c4ccccc4)CC3)c[nH]2)CC1,862 s
16,CCN1c2ccc(C)cc2C(=O)NC12CCN(C(=O)Cc1cccc(OC)c1)CC2,802 s
17,CCOc1ccc(C(=O)N2CCC3(CC2)NC(=O)c2cc(F)ccc2N3C)cc1,767 s
18,COC(=O)c1ccc2c(=O)n(-c3cc(F)cc(F)c3)c(N3CCCCC3)nc2c1,1180 s
19,O=C(CCCN1C(=O)c2cccc3cccc(c23)C1=O)N1CCN(c2ccccc2)CC1,866 s
20,Cc1[nH]c2ccccc2c1C(=O)C(=O)Nc1ccccc1,816 s
21,COc1ccc(NC(=O)c2nc(C)oc2C)c(OC)c1,913 s

# Further lines, results first:
row,RP-LC retention time,Compound
1,558 s,CCOCCCNC(=O)c1ccc(-c2ccc(N3CCCC3)nn2)cc1
2,966 s,COc1ccc(S(=O)(=O)Cc2nc(-c3ccccc3Cl)no2)cc1
3,725 s,c1ccc2c(-c3nc(C4CC4)no3)nnc(NC3CCCC3)c2c1
4,1240 s,COc1ccccc1-c1nc(Cn2nnc(-c3nc(-c4cccc(Cl)c4)no3)c2C)c(C)o1
5,730 s,Cc1ccccc1NC(=O)CN1C(=O)NC2(CCCCC2)C1=O
6,763 s,Cc1c(C(=O)N(C)C)sc2nc(-c3ccccc3)c(NC(C)(C)C)n12
7,770 s,O=C(NCCC1=CCCCC1)C1CCCN(c2ccc3nncn3n2)C1 (stereo unspecified)
8,901 s,Cc1cc(NC(=O)C2CCCN(C(=O)C3Sc4ccccc4NC3=O)C2)ccc1Br (stereo unspecified)
9,649 s,CCOc1ccc(NC(=O)N2CCN(c3nc4ccccc4n3C)CC2)cc1
10,761 s,COc1ccccc1-c1noc(C2CCCN2C(=O)NCc2ccco2)n1 (stereo unspecified)
11,958 s,Cc1nc2cc(-c3noc(C4CC(=O)N(c5cccc(Cl)c5)C4)n3)ccc2o1 (stereo unspecified)
12,1050 s,COc1ccccc1-c1nc(-c2cn(-c3cccc(Cl)c3)nn2)no1
13,1080 s,Cc1ccc(-n2ccnc2SCc2nc(-c3cccc(Br)c3)no2)cc1
14,1040 s,CCOc1ccccc1C(=O)n1nc(C)c(S(=O)(=O)N2CCCC2)c1C
15,640 s,CCc1noc(-c2ccnc(-n3cnc(C(=O)NC4CCCCCC4)c3)c2)n1
16,803 s,CC1=C(c2ccccc2)S(=O)(=O)N=C1N1CCCN(C(=O)CC(C)C)CC1
17,1040 s,COC(=O)c1ccc2c(=O)n(-c3cccc(Cl)c3)c(N3CCCC3)nc2c1
18,840 s,CC1CCCN(C(=O)c2cn(-c3ccc(-c4nc(C5CC5)no4)cn3)cn2)C1 (stereo unspecified)
19,799 s,CCc1nc2cc(N3CCC(C(=O)NCc4ccc5c(c4)OCO5)CC3)cnc2nc1CC
20,594 s,Cc1ccc(-c2ccc(N3CCCC(C(=O)NCCN4CCC(C)CC4)C3)nn2)cc1 (stereo unspecified)
21,696 s,O=C(Nc1ccc2c(c1)CN(C(=O)c1cc(C3CC3)[nH]n1)CCO2)C1CC1
22,737 s,Cc1cccc(Cn2c(CN3CCC(C(=O)NC(C)C)CC3)cc3ccccc32)c1
23,1240 s,Cc1sc(-c2nc(C(C)C)cs2)cc1S(=O)(=O)NC1CCCC1

# Source: the METLIN SMRT retention time set (Domingo-Almenara et al. 2019)
